# Where “and” joins values, the source holds several entries; their conditions need not be identical. Equal values may be shown once.
# Columns and labels:
# Type in all cases: cell-based
# Ps. aeruginosa ATCC#9027 = assay: Synergy test: microtiter plate high resolution MIC assay, M9GY medium, 30° C.; conditions: for MIC of the microbicide acting alone (Ca or Cb; QA/QB): Ps. aeruginosa, single component
# Source text: (§1) One measure of synergism is the industrially accepted method described by Kull, F. C.; Eisman, P. C.; Sylwestrowicz, H. D. and Mayer, R. L., in Applied Microbiology 9:538-541 (1961), using the ratio determined by the formula: Qa/QA+Qb/QB=Synergy Index(“SI”) wherein: • QA=concentration of compound A (first component) in ppm, acting alone, which produced an end point (MIC of Compound A). • Qa=concentration of compound A in ppm, in the mixture, which produced an end point. • QB=concentration of compound B (second component) in ppm, acting alone, which produced an end point (MIC of Compound B). • Qb=concentration of compound B in ppm, in the mixture, which produced an end point.
# (§2) When the sum of Qa/QA and Qb/QB is greater than one, antagonism is indicated. […] The lower the SI, the greater the synergy shown by that particular mixture. The minimum inhibitory concentration (MIC) of a microbicide is the lowest concentration tested under a specific set of conditions that prevents the growth of added microorganisms.
# (§3) Synergy tests were conducted using standard microtiter plate assays with media designed for optimal growth of the test microorganism. Minimal salt medium supplemented with 0.2% glucose and 0.1% yeast extract (M9GY medium) was used for testing bacteria; Potato Dextrose Broth (PDB medium) was used for testing yeast and mold. In this method, a wide range of combinations of microbicides was tested by conducting high resolution MIC assays in the presence of various concentrations of MBIT. High resolution MICs were determined by adding varying amounts of microbicide to one column of a microtitre plate and doing subsequent […] dilutions using an automated liquid handling system to obtain a series of endpoints ranging from 2 ppm to 10,000 ppm active ingredient.
# (§4) The synergy of the combinations of the present invention was determined against several microorganisms, as described in the Tables below. The bacteria were used at a concentration of about 5×10^6 bacteria per mL and the yeast and mold at 5×10^5 fungi per mL. These microorganisms are representative of natural contaminants in many consumer and industrial applications. […] (yeast and mold) or 30° C. (bacteria).
# (§5) In each test, Second Component (B) was MBIT and the First Component (A) was the other commercial microbicide.
# S. aureus ATCC#6538 = assay: as above; conditions: for MIC of the microbicide acting alone (Ca or Cb; QA/QB): S. aureus, single component; for Cb: ppm AI of MBIT alone (MIC end-point, QB): Table 6
# Source text: as §1, §2, §3, §4, §5
# A. niger ATCC # 16404 = assay: Synergy test: microtiter plate high resolution MIC assay, PDB medium, 25° C.; conditions: for MIC of the microbicide acting alone (Ca or Cb; QA/QB): A. niger, single component
# Source text: as §1, §2, §3, §4, §5
# C. albicans ATCC # 10231 = assay: as above; conditions: for MIC of the microbicide acting alone (Ca or Cb; QA/QB): C. albicans, single component
# Source text: as §1, §2, §3, §4, §5
# [1] = contact time 24 hrs, MBIT alone (QB) or in mixture with ACQ C2 (Qb)
# [2] = contact time 24 hrs, MBIT alone (QB) or in mixture with ACQ type D (Qb)
# [3] = contact time 48 hrs, MBIT alone (QB) or in mixture with ACQ C2 (Qb)
# [4] = contact time 48 hrs, MBIT alone (QB) or in mixture with ACQ type D (Qb)
compound,measurement,setting,value
"CCCCCCCCCCCC(=O)N[C@@H](CCCN=C(N)N)C(=O)OCC.Cl [CYTO GUARD LA, ethyl lauroyl arginate hydrochloride]",MIC of the microbicide acting alone (Ca or Cb; QA/QB),Ps. aeruginosa ATCC#9027; contact time 48 hrs,42.5 ppm AI
same,MIC of the microbicide acting alone (Ca or Cb; QA/QB),S. aureus ATCC#6538; contact time 24 hrs,2.125 ppm AI
same,MIC of the microbicide acting alone (Ca or Cb; QA/QB),S. aureus ATCC#6538; contact time 48 hrs,2.625 ppm AI
same,MIC of the microbicide acting alone (Ca or Cb; QA/QB),A. niger ATCC # 16404; contact time 3 days,110 ppm AI
same,MIC of the microbicide acting alone (Ca or Cb; QA/QB),A. niger ATCC # 16404; contact time 7 days,110 ppm AI
same,MIC of the microbicide acting alone (Ca or Cb; QA/QB),C. albicans ATCC # 10231; contact time 48 hrs,87.5 ppm AI
same,MIC of the microbicide acting alone (Ca or Cb; QA/QB),C. albicans ATCC # 10231; contact time 72 hrs,87.5 ppm AI
"Cn1sc2ccccc2c1=O [MBIT, N-methyl-1,2-benzisothiazolin-3-one]","Cb: ppm AI of MBIT alone (MIC end-point, QB)","Ps. aeruginosa ATCC#9027; Ps. aeruginosa ATCC#9027, contact time 24 hrs, alone, Table 6",125 ppm
same,MIC of the microbicide acting alone (Ca or Cb; QA/QB),Ps. aeruginosa ATCC#9027; contact time 24 hrs,125 ppm AI
same,MIC of the microbicide acting alone (Ca or Cb; QA/QB),Ps. aeruginosa ATCC#9027; contact time 48 hrs,125 ppm AI
same,Cb: ppm AI of MBIT at MIC end point,Ps. aeruginosa ATCC#9027; [1],75 ppm
same,Cb: ppm AI of MBIT at MIC end point,Ps. aeruginosa ATCC#9027; [2],75 ppm
same,Cb: ppm AI of MBIT at MIC end point,Ps. aeruginosa ATCC#9027; [3],125 ppm
same,Cb: ppm AI of MBIT at MIC end point,Ps. aeruginosa ATCC#9027; [4],125 ppm
same,"Cb: ppm AI of MBIT alone (MIC end-point, QB)","S. aureus ATCC#6538; S. aureus ATCC#6538, contact time 24 hrs",15 ppm
same,"Cb: ppm AI of MBIT alone (MIC end-point, QB)","S. aureus ATCC#6538; S. aureus ATCC#6538, contact time 48 hrs",15 ppm
same,MIC of the microbicide acting alone (Ca or Cb; QA/QB),S. aureus ATCC#6538; contact time 24 hrs,15 ppm AI
same,MIC of the microbicide acting alone (Ca or Cb; QA/QB),S. aureus ATCC#6538; contact time 48 hrs,15 ppm AI
same,MIC of the microbicide acting alone (Ca or Cb; QA/QB),"S. aureus ATCC#6538; second block of Table 4, contact time not given",15 ppm AI
same,Cb: ppm AI of MBIT at MIC end point,S. aureus ATCC#6538; [1],15 ppm
same,Cb: ppm AI of MBIT at MIC end point,S. aureus ATCC#6538; [2],15 ppm
same,Cb: ppm AI of MBIT at MIC end point,S. aureus ATCC#6538; [3],15 ppm
same,Cb: ppm AI of MBIT at MIC end point,S. aureus ATCC#6538; [4],15 ppm
same,"Cb: ppm AI of MBIT alone (MIC end-point, QB)","A. niger ATCC # 16404; A. niger ATCC # 16404, contact time 3 days, Table 6",37.5 ppm
same,"Cb: ppm AI of MBIT alone (MIC end-point, QB)","A. niger ATCC # 16404; A. niger ATCC # 16404, contact time 3 days, Table 7",37.5 ppm
same,"Cb: ppm AI of MBIT alone (MIC end-point, QB)","A. niger ATCC # 16404; A. niger ATCC # 16404, contact time 3 days, Table 8",37.5 ppm
same,"Cb: ppm AI of MBIT alone (MIC end-point, QB)","A. niger ATCC # 16404; A. niger ATCC # 16404, contact time 7 days, Table 6",37.5 ppm
same,"Cb: ppm AI of MBIT alone (MIC end-point, QB)","A. niger ATCC # 16404; A. niger ATCC # 16404, contact time 7 days, Table 7",75 ppm
same,"Cb: ppm AI of MBIT alone (MIC end-point, QB)","A. niger ATCC # 16404; A. niger ATCC # 16404, contact time 7 days, Table 8",75 ppm
same,MIC of the microbicide acting alone (Ca or Cb; QA/QB),A. niger ATCC # 16404; contact time 3 days,37.5 ppm AI
same,MIC of the microbicide acting alone (Ca or Cb; QA/QB),A. niger ATCC # 16404; contact time 7 days,37.5 ppm AI and 75 ppm AI
same,Cb: ppm AI of MBIT at MIC end point,"A. niger ATCC # 16404; contact time 3 days, MBIT alone (QB) or in mixture with ACQ C2 (Qb)",37.5 ppm
same,Cb: ppm AI of MBIT at MIC end point,"A. niger ATCC # 16404; contact time 3 days, MBIT alone (QB) or in mixture with ACQ type D (Qb)",37.5 ppm
same,Cb: ppm AI of MBIT at MIC end point,"A. niger ATCC # 16404; contact time 7 days, MBIT alone (QB) or in mixture with ACQ C2 (Qb)",37.5 ppm
same,Cb: ppm AI of MBIT at MIC end point,"A. niger ATCC # 16404; contact time 7 days, MBIT alone (QB) or in mixture with ACQ type D (Qb)",75 ppm
same,"Cb: ppm AI of MBIT alone (MIC end-point, QB)","C. albicans ATCC # 10231; C. albicans ATCC # 10231, contact time 48 hrs, Table 6",30 ppm
same,"Cb: ppm AI of MBIT alone (MIC end-point, QB)","C. albicans ATCC # 10231; C. albicans ATCC # 10231, contact time 48 hrs, Table 7",30 ppm
same,"Cb: ppm AI of MBIT alone (MIC end-point, QB)","C. albicans ATCC # 10231; C. albicans ATCC # 10231, contact time 48 hrs, Table 8",30 ppm
same,"Cb: ppm AI of MBIT alone (MIC end-point, QB)","C. albicans ATCC # 10231; C. albicans ATCC # 10231, contact time 72 hrs, Table 6",30 ppm
same,"Cb: ppm AI of MBIT alone (MIC end-point, QB)","C. albicans ATCC # 10231; C. albicans ATCC # 10231, contact time 72 hrs, Table 7",30 ppm
same,"Cb: ppm AI of MBIT alone (MIC end-point, QB)","C. albicans ATCC # 10231; C. albicans ATCC # 10231, contact time 72 hrs, Table 8",30 ppm
same,MIC of the microbicide acting alone (Ca or Cb; QA/QB),C. albicans ATCC # 10231; contact time 48 hrs,30 ppm AI
same,MIC of the microbicide acting alone (Ca or Cb; QA/QB),C. albicans ATCC # 10231; contact time 72 hrs,30 ppm AI and 60 ppm AI
same,Cb: ppm AI of MBIT at MIC end point,C. albicans ATCC # 10231; [3],60 ppm
same,Cb: ppm AI of MBIT at MIC end point,C. albicans ATCC # 10231; [4],30 ppm
same,Cb: ppm AI of MBIT at MIC end point,"C. albicans ATCC # 10231; contact time 72 hrs, MBIT alone (QB) or in mixture with ACQ C2 (Qb)",60 ppm
same,Cb: ppm AI of MBIT at MIC end point,"C. albicans ATCC # 10231; contact time 72 hrs, MBIT alone (QB) or in mixture with ACQ type D (Qb)",60 ppm
cocamidopropyl-N-2-hydroxyethylcarbamoyl methyl dimethyl ammonium chloride [MONTALINE C40],MIC of the microbicide acting alone (Ca or Cb; QA/QB),Ps. aeruginosa ATCC#9027; contact time 24 hrs,300 ppm AI
same,MIC of the microbicide acting alone (Ca or Cb; QA/QB),Ps. aeruginosa ATCC#9027; contact time 48 hrs,300 ppm AI
same,MIC of the microbicide acting alone (Ca or Cb; QA/QB),S. aureus ATCC#6538; contact time 24 hrs,5 ppm AI
same,MIC of the microbicide acting alone (Ca or Cb; QA/QB),S. aureus ATCC#6538; contact time 48 hrs,5 ppm AI
same,MIC of the microbicide acting alone (Ca or Cb; QA/QB),A. niger ATCC # 16404; contact time 3 days,650 ppm AI
same,MIC of the microbicide acting alone (Ca or Cb; QA/QB),A. niger ATCC # 16404; contact time 7 days,650 ppm AI
same,MIC of the microbicide acting alone (Ca or Cb; QA/QB),C. albicans ATCC # 10231; contact time 48 hrs,525 ppm AI
same,MIC of the microbicide acting alone (Ca or Cb; QA/QB),C. albicans ATCC # 10231; contact time 72 hrs,1100 ppm AI

# — patent publication US8129419B2, “Microbicidal composition” (Rohm and Haas Company, priority 2007, dated 2012)
